Data reported in EP4813991A1 (iLeadBMS Co., Ltd., priority 2023, dated 2025).
Where two headings read alike, the source gives them in different places.

How the values were obtained:
CDK12 [1] = molecular target: T1, CDK12 (Homo sapiens, UniProt Q9NYV4); assay: Cellular CDK12 inhibitory activity assay (Ser2 phosphorylation of RNA polymerase II subunit B1 CTD in MDA-MB-231 cells); assay type: cell-based; set-up: using MDA-MB-231 breast cancer cells; endogenous in cells; host or cells: MDA-MB-231; details: MDA-MB-231 cells, 6 hours treatment; read-out: pRpbl CTD S2 IC50
T1 sequence (Q9NYV4 whole entry, species assumed): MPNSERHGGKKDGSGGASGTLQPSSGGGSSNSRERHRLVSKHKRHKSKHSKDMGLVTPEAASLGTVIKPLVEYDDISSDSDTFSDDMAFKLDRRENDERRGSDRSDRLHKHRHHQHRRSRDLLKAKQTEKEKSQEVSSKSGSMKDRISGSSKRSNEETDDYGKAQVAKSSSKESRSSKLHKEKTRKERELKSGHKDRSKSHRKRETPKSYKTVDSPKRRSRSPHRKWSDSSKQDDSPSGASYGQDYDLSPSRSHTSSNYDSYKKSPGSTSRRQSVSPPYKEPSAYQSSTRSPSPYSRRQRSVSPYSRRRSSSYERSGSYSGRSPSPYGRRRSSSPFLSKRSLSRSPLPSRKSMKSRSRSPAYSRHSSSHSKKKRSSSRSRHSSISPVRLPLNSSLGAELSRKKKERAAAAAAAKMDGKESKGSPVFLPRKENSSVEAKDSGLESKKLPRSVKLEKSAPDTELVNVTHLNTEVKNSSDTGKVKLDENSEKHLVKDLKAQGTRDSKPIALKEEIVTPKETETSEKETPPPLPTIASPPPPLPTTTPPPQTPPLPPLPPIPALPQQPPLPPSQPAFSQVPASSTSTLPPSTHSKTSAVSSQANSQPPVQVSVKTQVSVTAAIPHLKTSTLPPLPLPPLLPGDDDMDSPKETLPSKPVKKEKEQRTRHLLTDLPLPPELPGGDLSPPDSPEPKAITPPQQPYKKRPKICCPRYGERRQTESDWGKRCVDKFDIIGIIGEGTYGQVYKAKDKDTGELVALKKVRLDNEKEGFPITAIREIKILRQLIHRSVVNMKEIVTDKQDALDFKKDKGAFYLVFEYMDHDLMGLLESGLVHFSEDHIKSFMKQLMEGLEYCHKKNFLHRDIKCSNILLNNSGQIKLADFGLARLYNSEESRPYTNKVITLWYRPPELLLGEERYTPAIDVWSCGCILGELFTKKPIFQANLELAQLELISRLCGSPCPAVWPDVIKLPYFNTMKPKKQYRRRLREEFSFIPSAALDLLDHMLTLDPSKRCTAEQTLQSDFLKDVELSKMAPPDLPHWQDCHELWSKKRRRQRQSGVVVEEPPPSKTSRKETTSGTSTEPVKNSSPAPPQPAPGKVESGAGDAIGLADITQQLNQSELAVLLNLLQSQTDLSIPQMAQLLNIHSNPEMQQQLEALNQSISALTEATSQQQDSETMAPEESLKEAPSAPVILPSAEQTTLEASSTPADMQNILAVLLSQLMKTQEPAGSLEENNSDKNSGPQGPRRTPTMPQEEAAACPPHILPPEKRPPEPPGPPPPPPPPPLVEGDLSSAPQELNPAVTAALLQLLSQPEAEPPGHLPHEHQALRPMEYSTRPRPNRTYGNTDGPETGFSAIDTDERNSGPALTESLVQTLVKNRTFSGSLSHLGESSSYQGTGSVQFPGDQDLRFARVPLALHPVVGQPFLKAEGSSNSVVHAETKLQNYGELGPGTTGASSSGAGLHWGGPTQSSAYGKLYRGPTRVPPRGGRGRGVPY
T1 sequence (O75909 whole entry partner, species assumed): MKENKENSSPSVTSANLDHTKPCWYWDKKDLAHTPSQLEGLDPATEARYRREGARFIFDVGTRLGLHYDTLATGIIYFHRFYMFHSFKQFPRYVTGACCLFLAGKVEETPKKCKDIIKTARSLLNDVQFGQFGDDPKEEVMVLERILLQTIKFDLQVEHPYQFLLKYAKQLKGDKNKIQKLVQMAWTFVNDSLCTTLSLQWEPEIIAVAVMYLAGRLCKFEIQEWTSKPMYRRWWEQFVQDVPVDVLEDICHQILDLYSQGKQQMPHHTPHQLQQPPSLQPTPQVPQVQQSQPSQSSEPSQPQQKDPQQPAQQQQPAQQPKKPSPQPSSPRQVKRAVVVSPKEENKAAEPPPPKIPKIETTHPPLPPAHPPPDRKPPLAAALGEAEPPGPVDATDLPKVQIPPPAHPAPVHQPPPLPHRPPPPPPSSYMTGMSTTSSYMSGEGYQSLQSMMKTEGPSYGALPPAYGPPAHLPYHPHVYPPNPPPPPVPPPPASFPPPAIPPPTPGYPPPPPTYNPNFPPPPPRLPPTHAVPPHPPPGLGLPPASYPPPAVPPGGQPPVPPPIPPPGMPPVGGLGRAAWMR
Method in brief: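 MDA-MB-231 cells in L-15 with 10 % FBS were treated with compound at 9 concentrations for 6 h at 37 °C, 0 % CO2. In-Cell Western read phospho-Ser2 and total RNA polymerase II CTD on a Li-COR Odyssey; IC50 from 4-parameter dose-response fit.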

[2] = test system: MDA-MB-231 breast cancer cells; assay: Proliferation inhibitory activity assay against MDA-MB-231 breast cancer cells; assay type: cell-based; details: Homo sapiens, 72 hours, CellTiter Glo, relative IC50
Method in brief: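 Cells grown in L-15 with 10% FBS at 37 °C, 0% CO2, then exposed next day to compounds at 9 concentrations (DMSO vehicle) for 72 h. Viability read by CellTiter Glo luminescence; relative IC50 from dose-response curve fit.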

CDK1 = CDK1 (Homo sapiens, UniProt P06493); assay: CDK1 kinase inhibitory activity assay and selectivity over CDK12; assay type: biochemical; details: for IC50: kinase reaction 120 minutes, 33P-gamma-ATP; for CDK1/CDK12: ratio of CDK1 IC50 to CDK12 IC50
CDK1, sequence (P06493 whole entry, species assumed): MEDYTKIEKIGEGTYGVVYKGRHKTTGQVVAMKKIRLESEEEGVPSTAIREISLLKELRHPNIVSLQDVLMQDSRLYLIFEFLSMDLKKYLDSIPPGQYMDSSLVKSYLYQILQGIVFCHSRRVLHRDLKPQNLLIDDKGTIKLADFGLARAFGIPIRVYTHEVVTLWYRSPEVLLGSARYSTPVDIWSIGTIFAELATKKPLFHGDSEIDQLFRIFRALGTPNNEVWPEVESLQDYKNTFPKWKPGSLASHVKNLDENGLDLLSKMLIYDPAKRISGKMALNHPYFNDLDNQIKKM
CDK1, sequence (P14635 whole entry partner, species assumed): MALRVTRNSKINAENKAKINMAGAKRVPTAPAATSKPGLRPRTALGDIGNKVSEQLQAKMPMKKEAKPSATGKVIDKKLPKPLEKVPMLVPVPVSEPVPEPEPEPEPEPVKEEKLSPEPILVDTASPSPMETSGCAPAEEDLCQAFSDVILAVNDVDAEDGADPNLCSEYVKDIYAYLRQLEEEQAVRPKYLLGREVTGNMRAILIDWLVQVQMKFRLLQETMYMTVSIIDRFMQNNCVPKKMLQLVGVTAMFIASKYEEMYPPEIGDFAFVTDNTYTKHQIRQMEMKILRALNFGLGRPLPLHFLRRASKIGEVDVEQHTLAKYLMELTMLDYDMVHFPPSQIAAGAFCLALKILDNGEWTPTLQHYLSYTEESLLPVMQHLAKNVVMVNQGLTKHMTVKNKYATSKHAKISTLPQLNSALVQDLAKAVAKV
Protocol: (§1) Before initiating the CDK1 and CDK2 kinase reactions, each Example compound was dissolved and diluted in DMSO as a solvent across 9 concentration ranges at room temperature. The diluted solutions were then incubated with a mixture of kinase and substrate (and cofactors, if required) for 20 minutes. Next, radioisotope-labeled ATP (^33P-gamma-ATP) was added to proceed with the kinase reaction at room temperature for 120 minutes. After the reaction was completed, the reaction mixture was transferred to a filter paper that binds the radioisotope-labeled catalytic product (^33P-substrate). Unreacted ^33P-ATP was removed by washing with 0.75 % phosphoric acid, and then the radioactive phosphorylated substrate remaining on the filter paper was measured. Kinase activity data were expressed as a percentage of the kinase activity remaining in the test sample compared to a DMSO control group. The half-maximal inhibitory concentration (IC50) for each kinase was calculated using Prism software.
(§2) The CDK1 and CDK2 kinase inhibitory activities of the Example compounds measured by the above method were evaluated according to the following criteria, and the results are presented in Table 14.

CDK12 [3] = molecular target: T1, CDK12; assay: CDK12 kinase inhibitory activity assay (33P-ATP filter binding); assay type: biochemical; details: kinase reaction 120 minutes, 33P-gamma-ATP; read-out: CDK12 IC50
Method in brief: (§3)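 Compound in 9 concentrations pre-incubated 20 min with kinase and substrate, then ^33P-γ-ATP added and reacted 120 min at room temperature. Phosphorylated substrate captured on filter, washed with 0.75 % phosphoric acid and counted; activity as % of DMSO control, IC50 fitted.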

CDK13 = CDK13 (Homo sapiens, UniProt Q14004); assay: CDK13 kinase inhibitory activity assay (33P-ATP filter binding); assay type: biochemical
CDK13, sequence (Q14004 whole entry, species assumed): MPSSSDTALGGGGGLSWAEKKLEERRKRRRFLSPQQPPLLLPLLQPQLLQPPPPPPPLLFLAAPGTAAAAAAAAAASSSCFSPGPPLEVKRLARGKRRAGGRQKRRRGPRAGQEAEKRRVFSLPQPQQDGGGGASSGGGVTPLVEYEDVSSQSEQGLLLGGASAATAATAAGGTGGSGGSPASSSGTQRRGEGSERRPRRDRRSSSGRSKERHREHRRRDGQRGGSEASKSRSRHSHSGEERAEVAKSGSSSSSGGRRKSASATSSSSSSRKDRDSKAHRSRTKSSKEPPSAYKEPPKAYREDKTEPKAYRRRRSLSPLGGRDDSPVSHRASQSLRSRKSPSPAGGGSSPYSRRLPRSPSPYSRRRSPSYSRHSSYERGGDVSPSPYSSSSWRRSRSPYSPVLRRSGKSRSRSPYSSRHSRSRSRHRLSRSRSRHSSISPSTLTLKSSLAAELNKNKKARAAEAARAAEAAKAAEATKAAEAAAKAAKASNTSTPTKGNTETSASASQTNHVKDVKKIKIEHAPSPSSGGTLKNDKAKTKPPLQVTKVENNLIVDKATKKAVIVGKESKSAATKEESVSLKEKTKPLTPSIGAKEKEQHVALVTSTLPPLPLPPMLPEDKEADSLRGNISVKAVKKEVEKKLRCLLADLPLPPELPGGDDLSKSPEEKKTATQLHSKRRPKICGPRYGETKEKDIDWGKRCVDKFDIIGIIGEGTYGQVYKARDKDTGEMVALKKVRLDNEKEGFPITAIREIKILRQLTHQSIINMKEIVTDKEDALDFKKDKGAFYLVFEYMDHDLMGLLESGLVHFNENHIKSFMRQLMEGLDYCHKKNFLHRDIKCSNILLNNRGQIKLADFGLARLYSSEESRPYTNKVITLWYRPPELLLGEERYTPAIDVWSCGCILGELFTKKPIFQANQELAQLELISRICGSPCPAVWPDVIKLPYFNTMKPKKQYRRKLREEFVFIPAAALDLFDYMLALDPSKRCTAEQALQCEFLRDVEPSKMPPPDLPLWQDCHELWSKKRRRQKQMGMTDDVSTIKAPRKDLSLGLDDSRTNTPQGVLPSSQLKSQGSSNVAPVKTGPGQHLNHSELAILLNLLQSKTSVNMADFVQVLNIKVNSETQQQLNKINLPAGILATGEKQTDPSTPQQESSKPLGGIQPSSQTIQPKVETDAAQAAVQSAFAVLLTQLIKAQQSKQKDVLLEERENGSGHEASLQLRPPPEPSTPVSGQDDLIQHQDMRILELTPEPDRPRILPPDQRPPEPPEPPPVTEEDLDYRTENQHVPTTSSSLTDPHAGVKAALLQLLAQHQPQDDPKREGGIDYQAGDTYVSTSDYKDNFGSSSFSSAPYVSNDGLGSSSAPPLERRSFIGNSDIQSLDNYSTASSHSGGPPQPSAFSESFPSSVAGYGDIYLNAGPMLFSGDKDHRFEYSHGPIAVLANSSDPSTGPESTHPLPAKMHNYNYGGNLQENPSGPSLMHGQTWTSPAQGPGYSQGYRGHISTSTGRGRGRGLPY
CDK13, sequence (O75909 whole entry partner, species assumed): as the sequence (O75909 whole entry partner, species assumed) above
Method in brief: as §3

CDK2 = CDK2 (Homo sapiens, UniProt P24941); assay: CDK2 kinase inhibitory activity assay and selectivity over CDK12; assay type: biochemical; details: for IC50: kinase reaction 120 minutes, 33P-gamma-ATP; for CDK2/CDK12: ratio of CDK2 IC50 to CDK12 IC50
Protocol: as §1, §2

HCC70 cells = assay: Breast cancer cell proliferation inhibitory activity, HCC70; assay type: cell-based; details: Homo sapiens, 72 hours, CellTiter Glo, relative IC50
Protocol: (§4) Experiments were conducted using three types of breast cancer cell lines to measure the cell proliferation inhibitory ability of each Example compound. For HCC70 cells, 100 µL of cell suspension was dispensed into a 96-well plate using RPMI1640 (Invitrogen) medium containing 10 % FBS, followed by incubation in a cell incubator at 37 °C and 5 % CO2. For BT-20 cells, 100 µL of cell suspension was dispensed into a 96-well plate using EMEM (Invitrogen) medium containing 10 % FBS, followed by incubation in a cell incubator at 37 °C and 5 % CO2. For MDA-MB-436 cells, 100 µL of cell suspension was dispensed into a 96-well plate using L-15 (Invitrogen) medium containing 10 % FBS, followed by incubation in a cell incubator at 37 °C and 0 % CO2. The next day, each Example compound dissolved and diluted in DMSO across 9 concentration ranges and a DMSO control group were treated on the cells for 72 hours. After completion of the compound treatment, 100 µL of CellTiter Glo (Promega) reagent was added to each well of the 96-wellplate, followed by shaking for 10 minutes and standing at room temperature for 10 minutes. After inserting the 96-well plate into an Envision plate reader (PerkinElmer), luminescence signals were measured. Relative IC50 values were calculated by fitting a dose-response curve using XL fit (IDBS Ltd) software.
(§5) The breast cancer cell proliferation inhibitory activities of the Example compounds measured by the method described above were evaluated according to the following criteria, and the results are presented in Table 15.

MDA-MB-436 cells = assay: Breast cancer cell proliferation inhibitory activity, MDA-MB-436; assay type: cell-based; details: Homo sapiens, 72 hours, CellTiter Glo, relative IC50
Protocol: as §4, §5

BT-20 cells = assay: Breast cancer cell proliferation inhibitory activity, BT-20; assay type: cell-based; details: Homo sapiens, 72 hours, CellTiter Glo, relative IC50
Protocol: as §4, §5

[4] = kinase reaction 120 minutes, 33P-gamma-ATP, read-out: CDK13 IC50

Row | IC50 (CDK12 [1]) [nM] | IC50 [2] [nM] | IC50 (CDK1) [nM] | CDK1/CDK12 (CDK1) | IC50 (CDK12 [3]) [nM] | IC50 (CDK13; [4]) [nM] | IC50 (CDK2) [nM] | IC50 (MDA-MB-436 cells) [nM] | IC50 (BT-20 cells) [nM] | Compound | CDK2/CDK12 (CDK2) | IC50 (CDK13) [nM] | IC50 (HCC70 cells) [nM]
1 | < 300 | ≤ 50 | > 1000 | A (CDK1/CDK12 or CDK2/CDK12 > 500-fold) | < 100 | < 100 | > 1000 | – | – | Fc1cccc2[nH]c(CNc3cc(N4CCOCC4)nn4c(C(F)(F)F)cnc34)nc12 [Example 76, N-((4-fluoro-1H-benzo[d]imidazol-2-yl)methyl)-6-morpholino-3-(trifluoromethyl)imidazo[1,2-b]pyridazin-8-amine] | A (CDK1/CDK12 or CDK2/CDK12 > 500-fold) | – | –
2 | < 300 | ≤ 50 | > 1000 | A (CDK1/CDK12 or CDK2/CDK12 > 500-fold) | < 100 | < 100 | > 1000 | – | – | Fc1ccc2[nH]c(CNc3cc(N4CCOCC4)nn4c(C(F)(F)F)cnc34)nc2c1 [Example 77, N-((5-fluoro-1H-benzo[d]imidazol-2-yl)methyl)-6-morpholino-3-(trifluoromethyl)imidazo[1,2-b]pyridazin-8-amine] | B (100-fold < CDK1/CDK12 or CDK2/CDK12 ≤ 500-fold) | – | –
3 | – | – | – | – | – | – | – | > 1000 | > 1000 | O=C(c1cc(Cc2n[nH]c(=O)c3ccccc23)ccc1F)N1CCN(C(=O)C2CC2)CC1 [Olaparib, reference compound] | – | – | > 1000
4 | – | – | – | – | – | – | – | – | > 1000 | CC(=O)c1c(C)c2cnc(Nc3ccc(N4CCNCC4)cn3)nc2n(C2CCCC2)c1=O [Palbociclib, reference compound] | – | – | > 1000
5 | – | 50 to 500 | – | – | – | 100 to 500 | – | 50 to 1000 | 50 to 1000 | Cn1cc(-n2cnc3c(NCc4nc5cc(Cl)c(Cl)cc5[nH]4)nc(N4CCOCC4)nc32)cn1 [SR-4835, reference compound] | – | – | 50 to 1000

Row | Compound | IC50 (CDK12 [1]) [nM] | IC50 [2] [nM] | IC50 (CDK1) [nM] | CDK1/CDK12 (CDK1) | IC50 (CDK12 [3]) [nM] | IC50 (CDK13; [4]) [nM] | IC50 (CDK2) [nM] | IC50 (MDA-MB-436 cells) [nM] | IC50 (BT-20 cells) [nM] | CDK2/CDK12 (CDK2) | IC50 (CDK13) [nM] | IC50 (HCC70 cells) [nM]
6 | O=C(CO)NC1CCN(c2cc(NCc3nc4cc(Cl)c(Cl)cc4[nH]3)c3ncc(C(F)(F)F)n3n2)CC1 [Example 115, N-(1-(8-(((5,6-dichloro-1H-benzo[d]imidazol-2-yl)methyl)amino)-3-(trifluoromethyl)imidazo[1,2-b]pyridazin-6-yl)piperidin-4-yl)-2-hydroxyacetamide] | < 300 | ≤ 50 | > 1000 | B (100-fold < CDK1/CDK12 or CDK2/CDK12 ≤ 500-fold) | < 100 | – | > 1000 | – | – | B (100-fold < CDK1/CDK12 or CDK2/CDK12 ≤ 500-fold) | < 100 | –
